Cn1cc[nH]c1=S
solubility (mole fraction)
Conditions | 278.15 K | 283.15 K | 288.15 K | 293.15 K | 298.15 K | 303.15 K | 308.15 K | 313.15 K | 318.15 K | 323.15 K
in 1,4-dioxane | 0.0435 | 0.0517 | 0.0616 | 0.0731 | 0.0874 | 0.102 | 0.119 | 0.141 | 0.164 | 0.187
in THF | 0.0475 | 0.0542 | 0.0634 | 0.0733 | 0.0841 | 0.0972 | 0.112 | 0.13 | 0.148 | 0.169
in acetone | 0.0425 | 0.0517 | 0.0623 | 0.0749 | 0.0889 | 0.107 | 0.124 | 0.147 | 0.167 | 0.193
in acetonitrile | 0.016 | 0.0216 | 0.0267 | 0.0338 | 0.0416 | 0.0531 | 0.0668 | 0.0818 | 0.101 | 0.121
in ethanol | 0.0275 | 0.0335 | 0.0417 | 0.0519 | 0.0645 | 0.0795 | 0.0968 | 0.117 | 0.139 | 0.167
in ethyl acetate | 0.0159 | 0.018 | 0.0198 | 0.022 | 0.0246 | 0.0273 | 0.0306 | 0.0339 | 0.038 | 0.0428
in isobutanol | 0.019 | 0.0233 | 0.0289 | 0.0365 | 0.0439 | 0.0542 | 0.0656 | 0.0809 | 0.0966 | 0.117
in isopropanol | 0.0168 | 0.0225 | 0.029 | 0.0381 | 0.0478 | 0.0621 | 0.0788 | 0.0985 | 0.123 | 0.152
in methanol | 0.06 | 0.0711 | 0.084 | 0.0996 | 0.125 | 0.148 | 0.177 | 0.21 | 0.244 | 0.283
in methyl acetate | 0.0288 | 0.0337 | 0.0391 | 0.0452 | 0.0521 | 0.0593 | 0.07 | 0.0817 | 0.0936 | 0.107
in n-butanol | 0.0194 | 0.026 | 0.0328 | 0.0414 | 0.0528 | 0.0665 | 0.0823 | 0.102 | 0.124 | 0.153
in n-propanol | 0.0261 | 0.032 | 0.0385 | 0.0468 | 0.0558 | 0.0663 | 0.0786 | 0.0931 | 0.111 | 0.13

— BigSolDB 2.1
